Tests used:
[1] = test system: tobacco budworm (Heliothis virescens); assay: Activity against tobacco budworm (TBW); format: in vivo; details: 144 h, read-out: percent mortality, TBW
Procedure: In conducting evaluations of insecticidal activity, each test compound was formulated as a 400 ppm solution, and this solution was then diluted with water to give lesser concentrations. The 400 ppm solution was prepared by combining 19.2 mL of 0.05% solution of Tween 20 (polyoxyethylene (20) sorbitan monolaurate) in water with a solution of 8 mg of the compound in 0.8 mL of acetone/EtOH (9/1).
Activity against tobacco budworm (Heliothis virescens) was evaluated as follows. A general purpose lepidoptera artificial diet was diluted to half strength with a 5% non nutritive agar. 8 mL of this diet material was dispensed into each one ounce diet cup. One hour prior to treatment 18 to 20 eggs were dispensed onto the diet surface. The cups were then sprayed with formulated material through a flat-fan nozzle. The test was run using concentrations of 400 ppm and 50 ppm. Treated cups were air dried prior to sealing with plastic caps. The cups were held for 6 days at room temperature. Activity was then rated based on the total number of live and dead larvae, and on the size of live larvae.

[2] = test system: peanut root knot nematode (Meloidogyne arenaria); assay: whole plant or invertebrate; details: in Arachis hypogaea, read-out: percent mortality, RKN
[3] = test system: beet armyworm (Spodoptera exiqua); assay: whole plant or invertebrate; details: 144 h, read-out: percent mortality, BAW
[4] = test system: two spotted spider mite (Tetranychus urticae); assay: whole plant or invertebrate; details: 72 h, read-out: percent mortality, TSSM
[5] = test system: aster leafhopper (Macrosteles fascifrons); assay: whole plant or invertebrate; details: 24 h, read-out: percent mortality, ALH
[6] = test system: German cockroach (Blattella germanicus); assay: whole plant or invertebrate; details: 240 h, read-out: percent mortality, GECR
[7] = test system: cotton aphid (Aphis gossypii); assay: whole plant or invertebrate; details: 72 h, read-out: percent mortality, CA
[8] = test system: Southern corn rootworm (Diabrotica undecimpuctata howardi Barber); assay: whole plant or invertebrate; details: in Zea mays, soil, read-out: percent mortality, SCRW

SMILES	mortality at 400 ppm [1] [%]	mortality at 400 ppm [2] [%]	mortality at 400 ppm [3] [%]	mortality at 400 ppm [4] [%]	mortality at 400 ppm [5] [%]	mortality at 400 ppm [6] [%]	mortality at 400 ppm [7] [%]	mortality at 24 µg/g [8] [%]
CCc1nccc(NC(=O)Cc2ccc(Oc3ccc(C#N)cn3)cc2)n1 [Compound 13, 4-(5-cyano-2-pyridinyloxy)phenyl-N-(2-ethyl-4-pyrimidinyl)acetamide]	100	100	100	100	0	60	100	0
CCc1nccc(NC(=O)Cc2ccc(Oc3ncc(Br)cn3)cc2)n1 [Compound 14, 4-(5-bromo-2-pyrimidinyloxy)phenyl-N-(2-ethyl-4-pyrimidinyl)acetamide]	80	0	100	0	100	0	100	0
CCc1nccc(NC(=O)Cc2ccc(Oc3ccc([N+](=O)[O-])cc3)cc2)n1 [Compound 53, 4-(4-nitrophenoxy)phenyl-N-(2-ethyl-4-pyrimidinyl)acetamide]	100	100	100	100	90	80	100	100
O=C(Cc1ccc(Oc2ccc(F)cc2)cc1)Nc1ccnc(Cl)n1 [Compound 54, 4-(4-fluorophenoxy)phenyl-N-(2-chloro-4-pyrimidinyl)acetamide]	60	0	100	0	0	0	0	0
CCc1nccc(NC(=O)Cc2ccc(OC(F)(F)C(F)F)cc2)n1 [Compound 55, 4-(1,1,2,2-tetrafluoroethoxy)phenyl-N-(2-ethyl-4-pyrimidinyl)acetamide]	80	100	100	100	100	100	100	100
CC(C)(C)c1nccc(NC(=O)Cc2ccc(Oc3ccc(Cl)cc3)cc2)n1 [Compound 59, 4-(4-chlorophenoxy)phenyl-N-(2-(1,1-dimethylethyl)-4-pyrimidinyl)acetamide]	100	0	100	0	80	100	100	100
CC(C)(C)c1nccc(NC(=O)Cc2ccc(Oc3ccc(C#N)cc3)cc2)n1 [Compound 60, 4-(4-cyanophenoxy)phenyl-N-(2-(1,1-dimethylethyl)-4-pyrimidinyl)acetamide]	100	100	100	100	100	100	100	100
CC(C)(C)c1nccc(NC(=O)Cc2ccc(Oc3ccc(C(F)(F)F)cc3)cc2)n1 [Compound 62, 4-(4-trifluoromethylphenoxy)phenyl-N-(2-(1,1-dimethylethyl)-4-pyrimidinyl)acetamide]	100	0	100	100	80	100	100	100
Cc1nccc(NC(=O)Cc2ccc(Oc3ccc(C(F)(F)F)cc3)cc2)n1 [Compound 63, 4-(4-trifluoromethylphenoxy)phenyl-N-(2-methyl-4-pyrimidinyl)acetamide]	100	0	100	100	60	100	100	0
O=C(Cc1ccc(Oc2ccc(C(F)(F)F)cc2)cc1)Nc1ccnc(C2CC2)n1 [Compound 67, 4-(4-trifluoromethylphenoxy)phenyl-N-(2-cyclopropyl-4-pyrimidinyl)acetamide]	100	100	100	100	60	100	100	100
O=C(Cc1ccc(Oc2ccc(C(F)(F)F)cc2)cc1)Nc1ccncn1 [Compound 68, 4-(4-trifluoromethylphenoxy)phenyl-N-(4-pyrimidinyl)acetamide]	100	100	0	0	0	0	0	0
COCc1nccc(NC(=O)Cc2ccc(Oc3ccc(C(F)(F)F)cc3)cc2)n1 [Compound 70, 4-(4-trifluoromethylphenoxy)phenyl-N-(2-(methoxymethyl)-4-pyrimidinyl)acetamide]	60	0	100	80	0	100	90	0
O=C(Cc1ccc(Oc2cccc(C(F)(F)F)c2)cc1)Nc1ccnc(C2CCC2)n1 [Compound 71, 4-(3-trifluoromethylphenoxy)phenyl-N-(2-cyclobutyl-4-pyrimidinyl)acetamide]	60	0	100	0	0	100	0	0
CCc1nccc(NC(=O)C(=CN(C)C)c2ccc(Oc3ccc(C(F)(F)F)cc3)cc2)n1 [Compound 73, 3-(dimethylamino)-N-(2-ethyl-4-pyrimidinyl)-1-(4-(4-trifluoromethylphenoxy)phenyl)-2-propenamide]	100	100	100	100	100	100	100	100
CCc1nccc(NC(=O)C(=CN(C)C)c2ccc(Oc3ccc(Cl)cc3)cc2)n1 [Compound 76, 3-(dimethylamino)-N-(2-ethyl-4-pyrimidinyl)-1-(4-(4-chlorophenoxy)phenyl)-2-propenamide]	100	100	100	80	100	80	100	100
CCc1nccc(NC(=O)C(=CN(C)C)c2ccc(Oc3ccc(C#N)cc3)cc2)n1 [Compound 78, 3-(dimethylamino)-N-(2-ethyl-4-pyrimidinyl)-1-(4-(4-cyanophenoxy)phenyl)-2-propenamide]	100	100	100	80	60	80	80	0
CCNC=C(C(=O)Nc1ccnc(CC)n1)c1ccc(Oc2ccc(C#N)cc2)cc1 [Compound 79, 3-(ethylamino)-N-(2-ethyl-4-pyrimidinyl)-1-(4-(4-cyanophenoxy)phenyl)-2-propenamide]	100	100	100	100	80	100	100	100
CCc1nccc(NC(=O)C(=CNCC(C)C)c2ccc(Oc3ccc(C#N)cc3)cc2)n1 [Compound 80, 3-(2-methylpropylamino)-N-(2-ethyl-4-pyrimidinyl)-2-(4-(4-cyanophenoxy)phenyl)-2-propenamide]	100	100	100	100	60	100	100	100

Reference: patent US5556859A, “N-(4-pyrimidinyl)amide pesticides” (DowElanco, priority 1994, dated 1996)
